Broadly, the IC50 is the concentration that inhibits the measured activity by half. In general, EC50 refers to the concentration at which the effect is half-maximal.

Where two headings read alike, the source gives them in different places. Some results are limits rather than exact numbers.

For 29 compounds, IC50 and EC50 results are on record in US7915291B2, “Hepatitis C virus inhibitors” (Bristol-Myers Squibb Company, priority 2002, dated 2011).

Assay [1] concerns the target HCV NS3/4A protease complex, BMS strain (UniProt P27958, C1454S/C1711G, species not given/STRAIN_BMS). Put plainly: Recombinant HCV NS3/4A protease complex FRET peptide assay (BMS strain). Format: biochemical, HCV genotype 1a. In outline: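 Recombinant BMS-strain NS3/4A (His-tagged NS4A with three-lysine tail, E. coli) at 2-3 nM preincubated 1 min with compound, then 2 μM ester-linked NS4A/NS4B-based FRET peptide added. Fluorescence followed in real time ~15 min at 25° C. Percent inhibition from slope of linear fluorescence change versus no-compound control.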

The test system of assay [2] is HCV replicon in Huh7 cells. As to the kind of experiment: HCV replicon cell-based assay. On the set-up: species or system HCV strain 1B. The settings on record: Hepatitis C virus, Huh-7; HCV replicon, Huh7 cells; read-out: EC50 range.
Setting [3] is: NS3/4A BMS strain; read-out: IC50 range.
Where [4] appears, read: read-out: IC50 range; NS3/4A BMS strain.

With `C=CC1C[C@]1(NC(=O)[C@@H]1C[C@@H](Oc2nccc3cc(CC)ccc23)CN1C(=O)[C@@H](NC(=O)OC(C)(C)C)C(C)(C)C)C(=O)NS(=O)(=O)C1CC1` (stereo partly drawn) [Compound 189, BOCNH-P3(L-tert-BuGly)-P2[(4R)-(6-ethyl isoquinolin-1-oxo)-S -proline]-P1(1R,2S Vinyl Acca)-CONHSO2-Cyclopropane], the IC50 in assay [1] (setting [3]) was less than 0.1 µM. Further, the EC50 in assay [2] is 0.1 to 1 µM.

For the compound `C=C[C@@H]1C[C@]1(NC(=O)[C@@H]1CC(Oc2nccc3cc(OC)ccc23)CN1C(=O)C([C@@H](C)CC)N(C)C(=O)OC(C)(C)C)C(=O)NS(=O)(=O)C1CC1` (stereo partly shown) [Compound 84], in assay [1] (setting [3]), the IC50 was less than 0.1 µM. Besides, in assay [2], the EC50 was 0.1 to 1 µM.

For the compound `C=CC1C[C@]1(NC(=O)[C@@H]1C[C@@H](Oc2cc(C(F)(F)F)nc3ccccc23)CN1C(=O)[C@@H](NC(=O)OC(C)(C)C)C(C)(C)C)C(=O)NS(=O)(=O)C1CC1` (stereo partly drawn) [Compound 180, BOCNH-P3(L-tert-BuGly)-P2[(4R)-(2-trifluoromethyl quinolin-4-oxo)-S-proline]-P1(1R,2S Vinyl Acca)-CONHSO2-Cyclopropane], the IC50 in assay [1] (setting [3]) is less than 0.1 µM. For the same compound, in assay [2], the EC50 lay within 0.1 to 1 µM.

On to `C=CC1C[C@]1(NC(=O)[C@@H]1C[C@@H](Nc2nccc3ccccc23)CN1C(=O)[C@@H](NC(=O)OC(C)(C)C)C(C)(C)C)C(=O)NS(=O)(=O)C1CC1` (stereo partly shown) [Compound 357], for which the IC50 in assay [1] (setting [4]) was less than 0.1 µM. In addition, the EC50 in assay [2] is 0.1 to 1 µM.

On to `C=C[C@@H]1C[C@]1(NC(=O)C1CC(Oc2nc(-c3ccccc3)nc3ccccc23)CN1C(=O)[C@@H](NC(=O)OC(C)(C)C)C(C)(C)C)C(=O)NS(=O)(=O)C1CC1` (stereo partly shown) [Compound 47], for which, in assay [1] (setting [3]), the IC50 was less than 0.1 µM. In addition, in assay [2], the EC50 is 0.1 to 1 µM.

With `C=CC1C[C@]1(NC(=O)[C@@H]1C[C@@H](Oc2nccc3c(SCCC)c(OCC)ccc23)CN1C(=O)[C@@H](NC(=O)OC(C)(C)C)C(C)(C)C)C(=O)NS(=O)(=O)C1CC1` (stereo partly drawn) [Compound 206, BOCNH-P3(L-t-BuGly)-P2[(4R)-(6-ethoxy-5propylthio -isoquinoline-1-oxo)-S-proline]-P1(1R,2S VinylAcca)-CONHSO2Cyclopropane], the IC50 in assay [1] (setting [3]) is less than 0.1 µM. For the same compound, the EC50 in assay [2] was less than 0.1 µM.

Regarding `C=C[C@@H]1C[C@]1(NC(=O)[C@@H]1C[C@@H](Oc2cc(-c3cccs3)ncn2)CN1C(=O)[C@@H](NC(=O)OC(C)(C)C)C(C)(C)C)C(=O)NS(=O)(=O)C1CC1` [Compound 412], in assay [1] (setting [3]), the IC50 is less than 0.1 µM. The EC50 in assay [2] is less than 0.1 µM.

Consider `C=C[C@@H]1C[C@]1(NC(=O)[C@@H]1C[C@@H](Oc2nccc3cc(OC)ccc23)CN1C(=O)[C@@H](NC(=O)OC(C)(C)C)C(C)(C)C)C(=O)NS(=O)(=O)C1CC1` [Compound 11], for which the IC50 in assay [1] (setting [3]) is less than 0.1 µM. In assay [2], the EC50 was less than 0.1 µM.

Turning to `C=C[C@@H]1C[C@]1(NC(=O)[C@@H]1C[C@@H](Oc2nccc3cc(OC)ccc23)CN1C(=O)[C@@H](NC(=O)N[C@H](C(=O)OCC)C(C)C)C(C)(C)C)C(=O)NS(=O)(=O)C1CC1` [Compound 148], the IC50 in assay [1] (setting [3]) is less than 0.1 µM. The concentration giving a half-maximal response (EC50) in assay [2] was less than 0.1 µM.

Consider `CC[C@@H]1C[C@]1(NC(=O)[C@@H]1C[C@@H](Oc2nccc3cccc(C)c23)CN1C(=O)[C@@H](NC(=O)OC(C)(C)C)C(C)(C)C)C(=O)NS(=O)(=O)C1CC1` [Compound 297], for which the IC50 in assay [1] (setting [3]) fell in the range of 0.1 to 1 µM. In addition, in assay [2], the EC50 was 1 to 10 µM.

On to `C=C[C@@H]1C[C@]1(NC(=O)[C@@H]1C[C@@H](Oc2cc(-c3csc(NC(C)C)n3)nc3cc(OC)ccc23)CN1C(=O)[C@@H](NC(=O)OC(C)(C)C)C(C)(C)C)C(=O)NS(=O)(=O)C1CC1` [Compound 370], for which, in assay [1] (setting [4]), the IC50 fell in the range of 0.1 to 1 µM. In addition, the EC50 in assay [2] lay in the range of 1 to 10 µM.

On to `C=C[C@@H]1C[C@]1(NC(=O)[C@@H]1C[C@@H](Oc2nc(-c3ccccc3)cc3ccccc23)CN1C(=O)[C@@H](NC(=O)OC(C)(C)C)C(C)(C)C)C(=O)NS(=O)(=O)C1CC1` [Compound 25], for which the IC50 in assay [1] (setting [3]) was less than 0.1 µM. Further, in assay [2], the EC50 was less than 0.1 µM.

Consider `C=CC1C[C@]1(NC(=O)[C@@H]1C[C@@H](Oc2nccc3cc(OC(C)C)ccc23)CN1C(=O)[C@@H](NC(=O)OC(C)(C)C)C(C)(C)C)C(=O)NS(=O)(=O)C1CC1` (stereo partly drawn) [Compound 192, BOCNH-P3(L-tert-BuGly)-P2[(4R)-(6-isopropoxy isoquinolin-1-oxo)-S-proline]-P1(1R,2S Vinyl Acca)-CONHSO2-Cyclopropane], for which the half-maximal inhibitory concentration (IC50) in assay [1] (setting [3]) is less than 0.1 µM. Further, the EC50 in assay [2] is less than 0.1 µM.

`C=CC1C[C@]1(NC(=O)[C@@H]1C[C@@H](Oc2cc(C(F)(F)F)nc3c(OC(F)(F)F)cccc23)CN1C(=O)[C@@H](NC(=O)OC(C)(C)C)C(C)(C)C)C(=O)NS(=O)(=O)C1CC1` (stereo partly drawn) [Compound 182, BOCNH-P3(L-tert-BuGly)-P2[(4R)-(2-trifluoromethyl, 8-trifluoromethoxy quinolin-4-oxo)-S-proline]-P1(1R,2S Vinyl Acca)-CONHSO2-Cyclopropane]: the IC50 in assay [1] (setting [3]) is less than 0.1 µM. The EC50 in assay [2] is 0.1 to 1 µM.

With `C=C[C@@H]1C[C@]1(NC(=O)[C@@H]1C[C@@H](Oc2nccc3ccccc23)CN1C(=O)[C@@H](NC(=O)Oc1ccccc1)C(C)(C)C)C(=O)NS(=O)(=O)C1CC1` [Compound 121], the half-inhibitory concentration (IC50) in assay [1] (setting [3]) was less than 0.1 µM. Moreover, in assay [2], the EC50 was 0.1 to 1 µM.

Consider `C=C[C@@H]1C[C@]1(NC(=O)[C@@H]1C[C@@H](Oc2nccc3ccccc23)CN1C(=O)[C@@H](NC(=O)OCCOC)C(C)(C)C)C(=O)NS(=O)(=O)C1CC1` [Compound 124], for which the IC50 in assay [1] (setting [3]) lay within 0.1 to 1 µM. Moreover, in assay [2], the half-maximal effective concentration (EC50) fell in the range of 1 to 10 µM.

In the case of `C=CC1C[C@]1(NC(=O)[C@@H]1C[C@@H](Oc2noc3cc(OC)ccc23)CN1C(=O)[C@@H](NC(=O)OC(C)(C)C)C(C)(C)C)C(=O)NS(=O)(=O)C1CC1` (stereo partly shown) [Compound 323], the IC50 in assay [1] (setting [3]) is less than 0.1 µM. Besides, the EC50 in assay [2] fell in the range of 0.1 to 1 µM.

Regarding `C=CC1C[C@]1(NC(=O)[C@@H]1C[C@@H](Oc2ccc3c(Cl)nccc3c2)CN1C(=O)[C@@H](NC(=O)OC(C)(C)C)C(C)(C)C)C(=O)NS(=O)(=O)C1CC1` (stereo partly drawn) [Compound 188, BOCNH-P3(L-tert-BuGly)-P2[(4R)-(1-chloro isoquinolin-6-oxo)-S -proline]-P1(1R,2S Vinyl Acca)-CONHSO2-Cyclopropane], the IC50 in assay [1] (setting [3]) was less than 0.1 µM. The EC50 in assay [2] lay within 0.1 to 1 µM.

For the compound `C=CC1C[C@]1(NC(=O)[C@@H]1C[C@@H](Oc2nc3ccoc3c3ccccc23)CN1C(=O)[C@@H](NC(=O)OC(C)(C)C)C(C)(C)C)C(=O)NS(=O)(=O)C1CC1` (stereo partly drawn) [Compound 220, BOCNH-P3(L-t-BuGly)-P2[(4R)-(1-oxa-4-aza-cyclopenta[α]naphthalen-5-yloxy)-S-proline]-P1(1R,2S VinylAcca)-CONHSO2Cyclopropane], in assay [1] (setting [3]), the IC50 was less than 0.1 µM. In addition, the concentration for a half-maximal effect (EC50) in assay [2] was less than 0.1 µM.

On to `C=CC1C[C@]1(NC(=O)[C@@H]1C[C@@H](Oc2nccc(-c3ccccn3)n2)CN1C(=O)[C@@H](NC(=O)OC)C(C)(C)C)C(=O)NS(=O)(=O)C1CC1` (stereo partly shown) [Compound 336], for which, in assay [1] (setting [3]), the IC50 was in the range of 0.1 to 1 µM. In addition, in assay [2], the EC50 is 1 to 10 µM.

`C=C[C@@H]1C[C@]1(NC(=O)[C@@H]1CC(Oc2nccc3cc(OC)ccc23)CN1C(=O)[C@@H](NC(=O)COC)C(C)(C)C)C(=O)NS(=O)(=O)C1CC1` (stereo partly shown) [Compound 59]: the IC50 in assay [1] (setting [3]) was less than 0.1 µM. Further, the concentration for a half-maximal effect (EC50) in assay [2] lay in the range of 0.1 to 1 µM.

On to `C=C[C@@H]1C[C@]1(NC(=O)[C@@H]1C[C@@H](Oc2nccc3ccccc23)CN1C(=O)[C@@H](NC(=O)OCCCCCC)C(C)(C)C)C(=O)NS(=O)(=O)C1CC1` [Compound 129], for which the IC50 in assay [1] (setting [3]) was in the range of 0.1 to 1 µM. Further, the EC50 in assay [2] was 0.1 to 1 µM.

With `C=C[C@@H]1C[C@]1(NC(=O)[C@@H]1C[C@@H](Oc2nc(-c3nccs3)cc3cc(OC)ccc23)CN1C(=O)[C@@H](NC(=O)OC(C)(C)C)C(C)(C)C)C(=O)NS(=O)(=O)C1CC1` [Compound 37], the concentration for half-maximal inhibition (IC50) in assay [1] (setting [3]) was less than 0.1 µM. The EC50 in assay [2] is less than 0.1 µM.

With `C=C[C@@H]1C[C@]1(NC(=O)[C@@H]1C[C@@H](Oc2nccc3cc(OC)ccc23)CN1C(=O)[C@@H](NC(=O)N[C@H](C(=O)OC)[C@@H](C)CC)C(C)(C)C)C(=O)NS(=O)(=O)C1CC1` [Compound 151], the IC50 in assay [1] (setting [3]) was less than 0.1 µM. The EC50 in assay [2] is less than 0.1 µM.

For the compound `C=C[C@@H]1C[C@]1(NC(=O)[C@@H]1C[C@@H](Oc2cc(-c3ccccc3)nc(-c3cccs3)c2)CN1C(=O)[C@@H](NC(=O)OC(C)(C)C)C(C)(C)C)C(=O)NS(=O)(=O)C1CC1` [Compound 413], in assay [1] (setting [3]), the IC50 is less than 0.1 µM. For the same compound, the EC50 in assay [2] is less than 0.1 µM.

`C=CC1C[C@]1(NC(=O)[C@@H]1C[C@@H](Oc2ccnc3c(C(F)(F)F)cccc23)CN1C(=O)[C@@H](NC(=O)OC(C)(C)C)C(C)(C)C)C(=O)NS(=O)(=O)C1CC1` (stereo partly drawn) [Compound 186, BOCNH-P3(L-tert-BuGly)-P2[(4R)-(8-trifluoromethyl quinolin-4-oxo)-S-proline]-P1(1R,2S Vinyl Acca)-CONHSO2-Cyclopropane]: the IC50 in assay [1] (setting [3]) is less than 0.1 µM. In addition, in assay [2], the EC50 is less than 0.1 µM.

As to `C=CCCCCC[C@H](NC(=O)OC(C)(C)C)C(=O)N1C[C@H](Oc2ccnc3cc(OC)ccc23)C[C@H]1C(=O)N[C@]1(C(=O)NS(=O)(=O)C2CC2)C[C@H]1C=C` [Compound 377], the IC50 in assay [1] (setting [3]) is less than 0.1 µM. Further, in assay [2], the 50% effective concentration (EC50) was in the range of 0.1 to 1 µM.

For the compound `C=C[C@@H]1C[C@]1(NC(=O)[C@@H]1C[C@@H](Oc2nccc3c(C(F)(F)F)cccc23)CN1C(=O)[C@@H](NC(=O)OC(C)(C)C)C(C)(C)C)C(=O)NS(=O)(=O)C1CC1` [Compound 270], the IC50 in assay [1] (setting [3]) was less than 0.1 µM. Further, in assay [2], the EC50 lay in the range of 0.1 to 1 µM.

As for `C=CC1C[C@]1(NC(=O)[C@@H]1C[C@@H](Oc2cc(C(F)(F)F)nc3c(Cl)cccc23)CN1C(=O)[C@@H](NC(=O)OC(C)(C)C)C(C)(C)C)C(=O)NS(=O)(=O)C1CC1` (stereo partly drawn) [Compound 183, BOCNH-P3(L-tert-BuGly)-P2[(4R)-(2-trifluoromethyl, 8-chloro quinolin-4-oxo)-S-proline]-P1(1R,2S Vinyl Acca)-CONHSO2-Cyclopropane], in assay [1] (setting [3]), the IC50 was less than 0.1 µM. Besides, in assay [2], the EC50 is less than 0.1 µM.
